≈ marks a conversion by molar mass, not a printed value. Read-outs that look alike come from different tables or passages of the source. Marks after values point to notes of the source that are not given here.
Tests used:
[1] = biological target: QUINOLONE RESISTANT Topoisomerase IV (S. aureus) (Staphylococcus aureus, UniProt P0C1U9); assay: Enzyme inhibitory activity, decatenation of kinetoplast DNA; type: biochemical; conditions: read-out: IC50 VALUE, QUINOLONE RESISTANT Topoisomerase IV (converted)
Method: (§1) Agents Chemother. 45: 3544-3547 (2001). […] The measurement was performed in the same manner as in Test Example 3. Similarly, the inhibitory activities of ciproxacin, levofloxacin, and garenoxacin were measured. The results were compared.

[2] = biological target: Topoisomerase IV (S. aureus) (Staphylococcus aureus, UniProt P0C1S7+P0C1U9); assay: as above; type: biochemical; conditions: S. aureus enzyme; read-out: IC50 VALUE, Topoisomerase IV (converted)
Method: as §1

[3] = consecutive administration, daily dose of 500 mg; cited from earlier work
S. pneumoniae CF9842 = assay: microbe, parasite or virus in culture; type: cell-based; conditions: Streptococcus pneumoniae
[4] = test system: S. aureus MS5935 gyrA mutant; assay: microbe, parasite or virus in culture; type: cell-based; conditions: Staphylococcus aureus
[5] = biological target: DNA gyrase derived from S. aureus (Staphylococcus aureus, UniProt P0A0K8+P20831); assay: Enzyme inhibitory activity, supercoiling of relaxed pBR322; type: biochemical; conditions: S. aureus enzyme; average of three or average ± SD; read-out: IC50 VALUE, DNA gyrase (converted)
Method: as §1

[6] = biological target: QUINOLONE RESISTANT DNA gyrase (quinolone-resistant S. aureus) (Staphylococcus aureus, UniProt P20831); assay: as above; type: biochemical; conditions: average of three or average ± SD, read-out: IC50 VALUE, QUINOLONE RESISTANT DNA gyrase (converted)
Method: as §1

S. aureus MS5935 = assay: Antibacterial activity against quinolone-resistant strain in vitro, CLSI dilution; type: cell-based; conditions: Staphylococcus aureus; S. aureus MS5935, PARENT STRAIN, gyrA None, grlA None
S. pneumoniae SN9981 = assay: microbe, parasite or virus in culture; type: cell-based; conditions: Streptococcus pneumoniae
S. pneumoniae ST9941 = assay: microbe, parasite or virus in culture; type: cell-based; conditions: Streptococcus pneumoniae
E. coli ATCC25922 [7] = assay: Frequency of development of resistant bacteria; type: cell-based, Escherichia coli; conditions: about 70 hours
Method: (§2) S. aureus ATCC29213 is Staphylococcus aureus, S. pneumoniae ATCC49619 is Streptococcus pneumoniae, and E. coli ATCC25922 is Escherichia coli. […]
(§3) The frequency of development of resistant bacteria was calculated by dividing the number of colonies developed on an agar medium having each drug concentration by the number of initially inoculated bacteria.

[8] = biological target: Topoisomerase IV (S. pneumoniae IID553) (Streptococcus pneumoniae serotype 4, UniProt P72525+Q59961); assay: Enzyme inhibitory activity, decatenation of kinetoplast DNA
S. pneumoniae KY-9 = assay: Antibacterial activity against Streptococcus pneumoniae in vitro, CLSI microdilution; type: cell-based; conditions: KY9
Method: The antibacterial activities in vitro of the compound D, garenoxacin, and levofloxacin against a strain in a mouse infected with Streptococcus pneumoniae (S. pneumonia KY-9) were measured in accordance with a CLSI microdilution method.

S. aureus MS5935 2nd = assay: microbe, parasite or virus in culture; type: cell-based; conditions: Staphylococcus aureus, MS59352ND
S. aureus ATCC29213 [9] = assay: MIC of strain used for resistance frequency test; type: cell-based; conditions: Staphylococcus aureus, ATCC29213
S. pneumoniae ATCC49619 [10] = assay: Frequency of development of resistant bacteria; type: cell-based, Streptococcus pneumoniae; conditions: about 70 hours
Method: as §2, §3

S. aureus MS5935 3rd = assay: microbe, parasite or virus in culture; type: cell-based; conditions: Staphylococcus aureus, MS59353RD
S. pneumoniae SF9863 = assay: microbe, parasite or virus in culture; type: cell-based; conditions: Streptococcus pneumoniae
S. pneumoniae ATCC49619 [11] = assay: microbe, parasite or virus in culture; type: cell-based; conditions: Streptococcus pneumoniae
S. aureus ATCC29213 [12] = assay: Frequency of development of resistant bacteria; type: cell-based, Staphylococcus aureus; conditions: about 70 hours
Method: as §2, §3

[13] = test system: H. influenzaes (26 STRAINS); assay: Antibacterial activity against clinically isolated strains, MIC90; type: cell-based; conditions: Haemophilus influenzae, 26 clinically isolated strains
Method: (§4) The antibacterial activities in vitro of the compound D, garenoxacin, and levofloxacin against each clinically isolated strain of Streptococcus pneumoniae, Moraxella catarrhalis, and Haemophilus influenzae were measured in accordance with a CLSI microdilution method or a CLSI agar dilution method. A MIC90 value was the minimum concentration in which the growth of 90% strain of all the measured strains was inhibited.

[14] = test system: M. catarrhalis (26 STRAINS); assay: as above; type: cell-based; conditions: Moraxella catarrhalis, 26 clinically isolated strains
Method: as §4

PSSP (26 STRAINS) = assay: as above; type: cell-based; conditions: Streptococcus pneumoniae, 26 clinically isolated strains
Method: as §4

[15] = test system: PCG-LOW SENSITIVE S. pneumoniae (22 STRAINS); assay: as above; type: cell-based; conditions: Streptococcus pneumoniae, 22 clinically isolated strains
Method: as §4

S. pneumoniae GF9821 = assay: microbe, parasite or virus in culture; type: cell-based; conditions: Streptococcus pneumoniae
E. coli ATCC25922 [16] = assay: microbe, parasite or virus in culture; type: cell-based; conditions: Escherichia coli
S. aureus MS5935 1st = assay: microbe, parasite or virus in culture; type: cell-based; conditions: Staphylococcus aureus, MS59351ST
[17] = biological target: DNA gyrase derived from S. pneumoniae IID553 (Streptococcus pneumoniae serotype 4, UniProt P0A4L9+P72524); assay: Enzyme inhibitory activity, supercoiling of relaxed pBR322
S. pneumoniae IID553 = assay: microbe, parasite or virus in culture; type: cell-based; conditions: Streptococcus pneumoniae
S. aureus MS5935 4th = assay: microbe, parasite or virus in culture; type: cell-based; conditions: Staphylococcus aureus, MS59354TH
S. pneumoniae NF9884 = assay: microbe, parasite or virus in culture; type: cell-based; conditions: Streptococcus pneumoniae
[18] = cited from earlier work

**Q.** For `C[C@H]1COc2c(N3CCN(C)CC3)c(F)cc3c(=O)c(C(=O)O)cn1c23` [LVFX, levofloxacin], which IC50 [1] is on record?
**A.** 238 µM

**Q.** And the IC50 [2]?
**A.** 7.75 µM

**Q.** What about the AUC [3] of the same compound?
**A.** 49670 ng·h/mL

**Q.** What about the Cmax [3] of the same compound?
**A.** 6320 ng/mL

**Q.** And the MIC (S. pneumoniae CF9842)?
**A.** 2 µg/mL (≈ 5.53 µM)

**Q.** And the MIC [4]?
**A.** 0.25 µg/mL (≈ 0.692 µM)

**Q.** And the IC50 [5]?
**A.** 44.3 µM

**Q.** What about the IC50 [6] of the same compound?
**A.** 3600 µM

**Q.** And the MIC (S. aureus MS5935)?
**A.** 0.125 µg/mL (≈ 0.346 µM)

**Q.** What about the MIC (S. pneumoniae SN9981) of the same compound?
**A.** 16 µg/mL (≈ 44.3 µM)

**Q.** And the MIC (S. pneumoniae ST9941)?
**A.** 16 µg/mL (≈ 44.3 µM)

**Q.** What about the “FREQUENCY OF DEVELOPMENT OF RESISTANT BACTERIA (AVERAGE OF TWO MEASURED VALUES)” value (E. coli ATCC25922 [7]; E. coli ATCC25922, 4 × MIC) of the same compound?
**A.** 3.9 × 10^−9*

**Q.** And the “FREQUENCY OF DEVELOPMENT OF RESISTANT BACTERIA (AVERAGE OF TWO MEASURED VALUES)” value (E. coli ATCC25922 [7]; E. coli ATCC25922, 8 × MIC)?
**A.** <1.9 × 10^−9

**Q.** And the “FREQUENCY OF DEVELOPMENT OF RESISTANT BACTERIA (AVERAGE OF TWO MEASURED VALUES)” value (E. coli ATCC25922 [7]; E. coli ATCC25922, 16 × MIC)?
**A.** <1.9 × 10^−9

**Q.** And the IC50 [8]?
**A.** 30.4 µM

**Q.** What about the MIC (S. pneumoniae KY-9) of the same compound?
**A.** 1 µg/mL (≈ 2.77 µM)

**Q.** And the MIC (S. aureus MS5935 2nd)?
**A.** 8 µg/mL (≈ 22.1 µM)

**Q.** What about the MIC (S. aureus ATCC29213 [9]) of the same compound?
**A.** 0.125 µg/mL

**Q.** What about the “FREQUENCY OF DEVELOPMENT OF RESISTANT BACTERIA (AVERAGE OF TWO MEASURED VALUES)” value (S. pneumoniae ATCC49619 [10]; S. pneumoniae ATCC49619, 4 × MIC) of the same compound?
**A.** <1.1 × 10^−8

**Q.** What about the “FREQUENCY OF DEVELOPMENT OF RESISTANT BACTERIA (AVERAGE OF TWO MEASURED VALUES)” value (S. pneumoniae ATCC49619 [10]; S. pneumoniae ATCC49619, 8 × MIC) of the same compound?
**A.** <1.1 × 10^−8

**Q.** What about the “FREQUENCY OF DEVELOPMENT OF RESISTANT BACTERIA (AVERAGE OF TWO MEASURED VALUES)” value (S. pneumoniae ATCC49619 [10]; S. pneumoniae ATCC49619, 16 × MIC) of the same compound?
**A.** <1.1 × 10^−8

**Q.** What about the MIC (S. aureus MS5935 3rd) of the same compound?
**A.** 32 µg/mL (≈ 88.6 µM)

**Q.** What about the MIC (S. pneumoniae SF9863) of the same compound?
**A.** 2 µg/mL (≈ 5.53 µM)

**Q.** What about the MIC (S. pneumoniae ATCC49619 [11]) of the same compound?
**A.** 1 µg/mL (≈ 2.77 µM)

**Q.** And the “FREQUENCY OF DEVELOPMENT OF RESISTANT BACTERIA (AVERAGE OF TWO MEASURED VALUES)” value (S. aureus ATCC29213 [12]; S. aureus ATCC29213, 4 × MIC)?
**A.** <2.1 × 10^−9

**Q.** And the “FREQUENCY OF DEVELOPMENT OF RESISTANT BACTERIA (AVERAGE OF TWO MEASURED VALUES)” value (S. aureus ATCC29213 [12]; S. aureus ATCC29213, 8 × MIC)?
**A.** <2.1 × 10^−9

**Q.** And the “FREQUENCY OF DEVELOPMENT OF RESISTANT BACTERIA (AVERAGE OF TWO MEASURED VALUES)” value (S. aureus ATCC29213 [12]; S. aureus ATCC29213, 16 × MIC)?
**A.** <2.1 × 10^−9

**Q.** What about the MIC90 [13] of the same compound?
**A.** 0.03 µg/mL (≈ 0.083 µM)

**Q.** What about the MIC90 [14] of the same compound?
**A.** 0.03 µg/mL (≈ 0.083 µM)

**Q.** What about the MIC90 (PSSP (26 STRAINS)) of the same compound?
**A.** 1 µg/mL (≈ 2.77 µM)

**Q.** What about the MIC90 [15] of the same compound?
**A.** 1 µg/mL (≈ 2.77 µM)

**Q.** And the MIC (S. pneumoniae GF9821)?
**A.** 2 µg/mL (≈ 5.53 µM)

**Q.** And the MIC (E. coli ATCC25922 [16])?
**A.** 0.015 µg/mL (≈ 0.0415 µM)

**Q.** What about the MIC (S. aureus MS5935 1st) of the same compound?
**A.** 0.5 µg/mL (≈ 1.38 µM)

**Q.** And the IC50 [17]?
**A.** 443 µM

**Q.** And the MIC (S. pneumoniae IID553)?
**A.** 1 µg/mL (≈ 2.77 µM)

**Q.** And the MIC (S. aureus MS5935 4th)?
**A.** 128 µg/mL (≈ 354 µM)

**Q.** And the MIC (S. pneumoniae NF9884)?
**A.** 2 µg/mL (≈ 5.53 µM)

**Q.** For `CC1COc2c(N3CCN(C)CC3)c(F)cc3c(=O)c(C(=O)O)cn1c23` (stereo not shown) [ofloxacin], which “tissue distribution ratio into the lung tissue” value ([18]; rat, 1.0 hour after oral administration) is on record?
**A.** 2.7

**Q.** For `N[C@@H]1CN(c2c(F)cc3c(=O)c(C(=O)O)cn([C@@H]4C[C@@H]4F)c3c2Cl)CC12CC2` [sitafloxacin], which “tissue distribution ratio into the lung tissue” value ([18]; male rat, 0.5 hours after single oral administration) is on record?
**A.** 2.7

Reference: US20180042918A1, “RESPIRATORY INFECTION TREATING AGENT” (KYORIN PHARMACEUTICAL CO., LTD., priority 2015, published 2018)
